Measurements: patent US20250332178A1, “METHODS OF TREATING MYCOBACTERIAL INFECTIONS USING TETRACYCLINE COMPOUNDS” (priority 2018, published 2025)
Values after ≈ are worked out from the molar mass of the structure shown. Like-named read-outs stand apart in the source and are kept apart here.

Columns and labels:
[1] = test system: rapid-growing mycobacteria (RGM) isolates; test: MIC (CLSI broth dilution), all RGM isolates; format: cell-based, nontuberculous mycobacteria; details: all 50 RGM isolates
M. abscessus complex = test: MIC (CLSI broth dilution), RGM isolates; format: cell-based
M. chelonae = test: MIC (CLSI broth dilution), RGM isolates; format: cell-based
M. fortuitum group = test: MIC (CLSI broth dilution), RGM isolates; format: cell-based
M. immunogenum group = test: MIC (CLSI broth dilution), RGM isolates; format: cell-based; details: M. immunogenum
M. mucogenium group = test: MIC (CLSI broth dilution), RGM isolates; format: cell-based
M. smegmatis group = test: MIC (CLSI broth dilution), RGM isolates; format: cell-based
M. arupense = test: MIC (CLSI broth dilution), slow-growing NTM isolates; format: cell-based; details: isolate 11, Other; read-out: MIC
M. simiae = test: as above; format: cell-based; details: read-out: MIC

C[C@@H](O)[C@H]1C(=O)N2C(C(=O)O)=C(SCCN=CN)C[C@H]12 [IPM, imipenem]
MIC50 [1]: 8 µg/mL (≈ 26.7 µM) | MIC90 [1]: 16 µg/mL (≈ 53.4 µM) | MIC (M. abscessus complex; isolate 1, M. abscessus complex, erm gene type MAB30): 8 µg/mL (≈ 26.7 µM) | MIC (M. abscessus complex; isolate 2, M. abscessus complex, erm gene type MAB30): 16 µg/mL (≈ 53.4 µM) | MIC (M. abscessus complex; isolate 3, M. abscessus complex, erm gene type MAB30): 8 µg/mL (≈ 26.7 µM) | MIC (M. abscessus complex; isolate 4, M. abscessus complex, erm gene type massiliense): 8 µg/mL (≈ 26.7 µM) | MIC (M. abscessus complex; isolate 5, M. abscessus complex, erm gene type massiliense/subsp. abs hybrid): 16 µg/mL (≈ 53.4 µM) | MIC (M. abscessus complex; isolate 6, M. abscessus complex, erm gene type Type 1 abscessus): 8 µg/mL (≈ 26.7 µM) | MIC (M. abscessus complex; isolate 7, M. abscessus complex, erm gene type Type 1 abscessus): 8 µg/mL (≈ 26.7 µM) | MIC (M. abscessus complex; isolate 8, M. abscessus complex, erm gene type Type 1 abscessus): 8 µg/mL (≈ 26.7 µM) | MIC (M. abscessus complex; isolate 9, M. abscessus complex, erm gene type Type 1 abscessus): 16 µg/mL (≈ 53.4 µM) | MIC (M. abscessus complex; isolate 10, M. abscessus complex, erm gene type Type 1 abscessus): 16 µg/mL (≈ 53.4 µM) | MIC (M. abscessus complex; isolate 11, M. abscessus complex, erm gene type Type 6 abscessus): 8 µg/mL (≈ 26.7 µM) | MIC (M. abscessus complex; isolate 12, M. abscessus complex, erm gene type Type 6 abscessus): 16 µg/mL (≈ 53.4 µM) | MIC (M. abscessus complex; isolate 13, M. abscessus complex, erm gene type Type 6 abscessus): 8 µg/mL (≈ 26.7 µM) | MIC (M. abscessus complex; isolate 14, M. abscessus complex, erm gene type Type 6 abscessus): 8 µg/mL (≈ 26.7 µM) | MIC (M. abscessus complex; isolate 15, M. abscessus complex, erm gene type Type 7 abscessus): 8 µg/mL (≈ 26.7 µM) | MIC (M. abscessus complex; isolate 16, M. abscessus complex, erm gene type Type 7 abscessus): 8 µg/mL (≈ 26.7 µM) | MIC (M. abscessus complex; isolate 17, M. abscessus complex, erm gene type Type 8 abscessus): 8 µg/mL (≈ 26.7 µM) | MIC (M. chelonae; isolate 18, M. chelonae): 16 µg/mL (≈ 53.4 µM) | MIC (M. chelonae; isolate 19, M. chelonae): 16 µg/mL (≈ 53.4 µM) | MIC (M. chelonae; isolate 20, M. chelonae): 16 µg/mL (≈ 53.4 µM) | MIC (M. chelonae; isolate 21, M. chelonae): 32 µg/mL (≈ 107 µM) | MIC (M. chelonae; isolate 22, M. chelonae): 16 µg/mL (≈ 53.4 µM) | MIC (M. fortuitum group; isolate 23, M. fortuitum group, M. fortuitum): ≤2 µg/mL | MIC (M. fortuitum group; isolate 24, M. fortuitum group, M. fortuitum): 4 µg/mL (≈ 13.4 µM) | MIC (M. fortuitum group; isolate 25, M. fortuitum group, M. fortuitum): ≤2 µg/mL | MIC (M. fortuitum group; isolate 26, M. fortuitum group, M. porcinum): ≤2 µg/mL | MIC (M. fortuitum group; isolate 27, M. fortuitum group, M. porcinum): 4 µg/mL (≈ 13.4 µM) | MIC (M. fortuitum group; isolate 28, M. fortuitum group, M. porcinum/M. boenickei): 8 µg/mL (≈ 26.7 µM) | MIC (M. fortuitum group; isolate 29, M. fortuitum group, M. porcinum/M. boenickei): 4 µg/mL (≈ 13.4 µM) | MIC (M. fortuitum group; isolate 30, M. fortuitum group, M. porcinum/M. boenickei): ≤2 µg/mL | MIC (M. fortuitum group; isolate 31, M. fortuitum group, M. senegalense): ≤2 µg/mL | MIC (M. fortuitum group; isolate 32, M. fortuitum group, M. senegalense): ≤2 µg/mL | MIC (M. fortuitum group; isolate 33, M. fortuitum group, M. senegalense): ≤2 µg/mL | MIC (M. fortuitum group; isolate 34, M. fortuitum group, M. senegalense): ≤2 µg/mL | MIC (M. immunogenum group; isolate 35, M. immunogenum group): 16 µg/mL (≈ 53.4 µM) | MIC (M. immunogenum group; isolate 36, M. immunogenum group): 32 µg/mL (≈ 107 µM) | MIC (M. immunogenum group; isolate 37, M. immunogenum group): 16 µg/mL (≈ 53.4 µM) | MIC (M. immunogenum group; isolate 38, M. immunogenum group): 32 µg/mL (≈ 107 µM) | MIC (M. mucogenium group; isolate 39, M. mucogenicum group, M. mucogenicum): ≤2 µg/mL | MIC (M. mucogenium group; isolate 40, M. mucogenicum group, M. mucogenicum): ≤2 µg/mL | MIC (M. mucogenium group; isolate 41, M. mucogenicum group, M. mucogenicum): ≤2 µg/mL | MIC (M. mucogenium group; isolate 42, M. mucogenicum group, M. mucogenicum): ≤2 µg/mL | MIC (M. mucogenium group; isolate 43, M. mucogenicum group, M. phocaicum): ≤2 µg/mL | MIC (M. mucogenium group; isolate 44, M. mucogenicum group, M. phocaicum): ≤2 µg/mL | MIC (M. mucogenium group; isolate 45, M. mucogenicum group, M. phocaicum): ≤2 µg/mL | MIC (M. mucogenium group; isolate 46, M. mucogenicum group, M. phocaicum): ≤2 µg/mL | MIC (M. mucogenium group; isolate 47, M. mucogenicum group, M. phocaicum): ≤2 µg/mL | MIC (M. mucogenium group; isolate 48, M. mucogenicum group, M. phocaicum): ≤2 µg/mL | MIC (M. smegmatis group; isolate 49, M. smegmatis group, M. goodii): 4 µg/mL (≈ 13.4 µM) | MIC (M. smegmatis group; isolate 50, M. smegmatis group, M. wolinskyi): 4 µg/mL (≈ 13.4 µM)

CO[C@H]1/C=C/O[C@@]2(C)Oc3c(C)c(O)c4c(O)c(c(/C=N/N5CCN(C)CC5)c(O)c4c3C2=O)NC(=O)/C(C)=C\C=C\[C@H](C)[C@H](O)[C@@H](C)[C@@H](O)[C@@H](C)[C@H](OC(C)=O)[C@@H]1C [RIF, rifampin]
MIC (M. arupense): > 2 µg/mL | MIC (M. simiae; isolate 13, Other): > 2 µg/mL | MIC (M. simiae; isolate 14, Other): > 2 µg/mL | MIC (M. simiae; isolate 15, Other): > 2 µg/mL
